Literature values, collected in patent US11622958B2, “Bifunctional prodrugs” (GEORG-AUGUST-UNIVERSITÄT GÖTTINGEN STIFTUNG ÖFFENTLICHEN …, priority 2015, dated 2023).

What was measured:
[1] = not given; remark: listed apart in the source

## COc1c(O)c2c(c3cc(C(=O)N4CCc5c4c(O)c(OC)c4[nH]c(C(=O)N6CC7CC78C6=CC(=O)c6[nH]cc(C)c68)cc54)[nH]c13)CCN2C(N)=O (centres unmarked) [CC-1065]
other
  IC50: 0.02 nM
[1]
  hepatotoxicity in animal experiments: delayed lethal hepatotoxicity
